Experimental data: paper PMC2853803 (ACS chemical biology, 2009)
“Also recorded” adds a separate entry of the source. Like-named read-outs stand apart in the source and are kept apart here. Marks after values point to notes of the source that are not given here. Values belong to the molecule of their own block, whether it stands above or below them.

Legend:
ABCG2 [1] = target: T1, ABCG2 (Homo sapiens, UniProt Q9UNQ0); assay: Screening assay: pheophorbide a; type: cell-based
T1 sequence (Q9UNQ0 1-655): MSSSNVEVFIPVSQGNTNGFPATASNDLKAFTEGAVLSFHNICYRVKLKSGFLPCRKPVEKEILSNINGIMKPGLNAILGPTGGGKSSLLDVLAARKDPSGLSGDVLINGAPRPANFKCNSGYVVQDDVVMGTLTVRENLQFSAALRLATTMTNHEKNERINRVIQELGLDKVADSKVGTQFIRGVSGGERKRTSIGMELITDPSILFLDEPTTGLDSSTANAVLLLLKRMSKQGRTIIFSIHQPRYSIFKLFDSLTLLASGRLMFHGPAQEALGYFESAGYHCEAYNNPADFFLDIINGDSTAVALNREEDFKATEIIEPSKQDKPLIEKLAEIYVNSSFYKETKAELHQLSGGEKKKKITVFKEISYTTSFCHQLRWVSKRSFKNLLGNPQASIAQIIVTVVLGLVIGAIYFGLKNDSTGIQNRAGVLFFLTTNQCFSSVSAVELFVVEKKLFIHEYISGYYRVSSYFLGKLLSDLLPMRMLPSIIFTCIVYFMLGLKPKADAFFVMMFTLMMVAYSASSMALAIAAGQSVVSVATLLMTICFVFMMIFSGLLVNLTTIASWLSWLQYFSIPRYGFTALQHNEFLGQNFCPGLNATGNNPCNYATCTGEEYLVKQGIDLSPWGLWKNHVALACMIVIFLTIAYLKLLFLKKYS

ABCG2 [2] = target: T1, ABCG2; type: cell-based; details: 10 µM compound; for activity in the BODIPY-prazosin flow cytometry assay: result in words
P-gp = P-gp (Homo sapiens, UniProt P08183); details: 50 µM botryllamide; for fold change in rhodamine fluorescence (P-gp-mediated transport): valspodar 3 µg/ml, P-gp-expressing HEK293; for effect on P-gp: result in words
Chain of P-gp (P08183 whole entry): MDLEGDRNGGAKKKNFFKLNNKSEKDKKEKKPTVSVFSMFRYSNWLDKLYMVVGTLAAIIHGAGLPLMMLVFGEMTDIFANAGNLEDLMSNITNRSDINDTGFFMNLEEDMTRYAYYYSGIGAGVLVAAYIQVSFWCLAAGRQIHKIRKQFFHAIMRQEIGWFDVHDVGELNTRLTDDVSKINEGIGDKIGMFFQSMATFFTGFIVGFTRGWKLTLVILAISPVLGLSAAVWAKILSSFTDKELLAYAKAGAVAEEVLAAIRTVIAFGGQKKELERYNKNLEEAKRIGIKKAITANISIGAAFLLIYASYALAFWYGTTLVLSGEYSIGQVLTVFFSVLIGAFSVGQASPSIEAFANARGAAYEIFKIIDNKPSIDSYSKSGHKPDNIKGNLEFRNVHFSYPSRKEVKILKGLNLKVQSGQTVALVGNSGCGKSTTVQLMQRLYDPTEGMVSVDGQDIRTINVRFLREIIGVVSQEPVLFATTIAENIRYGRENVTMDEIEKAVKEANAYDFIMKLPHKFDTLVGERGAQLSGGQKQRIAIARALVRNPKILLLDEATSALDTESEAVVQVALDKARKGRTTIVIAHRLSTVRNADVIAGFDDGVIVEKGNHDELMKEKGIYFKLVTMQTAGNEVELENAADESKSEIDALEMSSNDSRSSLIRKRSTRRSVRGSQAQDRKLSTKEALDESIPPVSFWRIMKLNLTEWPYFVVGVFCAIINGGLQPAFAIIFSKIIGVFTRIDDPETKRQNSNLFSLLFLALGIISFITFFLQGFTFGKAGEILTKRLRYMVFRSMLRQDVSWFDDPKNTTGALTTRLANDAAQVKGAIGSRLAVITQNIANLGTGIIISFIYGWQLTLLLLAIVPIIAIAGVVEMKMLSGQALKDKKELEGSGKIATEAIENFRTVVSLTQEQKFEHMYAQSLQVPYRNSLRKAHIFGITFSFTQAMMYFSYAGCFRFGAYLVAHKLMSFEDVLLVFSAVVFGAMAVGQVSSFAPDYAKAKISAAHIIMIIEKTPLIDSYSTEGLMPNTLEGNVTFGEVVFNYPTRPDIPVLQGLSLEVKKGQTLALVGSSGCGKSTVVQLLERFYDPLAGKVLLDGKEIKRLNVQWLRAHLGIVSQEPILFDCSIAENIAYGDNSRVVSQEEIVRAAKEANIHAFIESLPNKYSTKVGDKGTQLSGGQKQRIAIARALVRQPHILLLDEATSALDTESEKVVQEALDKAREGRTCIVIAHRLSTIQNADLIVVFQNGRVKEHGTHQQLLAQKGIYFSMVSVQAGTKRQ

MRP1 = MRP1 (Homo sapiens, UniProt P33527); type: cell-based; details: 50 µM botryllamide; for fold increase in cellular calcein fluorescence (MRP1-mediated transport): MK-571 50 µM, MRP1-expressing HEK293; for effect on MRP1: result in words
Chain of MRP1 (P33527 whole entry): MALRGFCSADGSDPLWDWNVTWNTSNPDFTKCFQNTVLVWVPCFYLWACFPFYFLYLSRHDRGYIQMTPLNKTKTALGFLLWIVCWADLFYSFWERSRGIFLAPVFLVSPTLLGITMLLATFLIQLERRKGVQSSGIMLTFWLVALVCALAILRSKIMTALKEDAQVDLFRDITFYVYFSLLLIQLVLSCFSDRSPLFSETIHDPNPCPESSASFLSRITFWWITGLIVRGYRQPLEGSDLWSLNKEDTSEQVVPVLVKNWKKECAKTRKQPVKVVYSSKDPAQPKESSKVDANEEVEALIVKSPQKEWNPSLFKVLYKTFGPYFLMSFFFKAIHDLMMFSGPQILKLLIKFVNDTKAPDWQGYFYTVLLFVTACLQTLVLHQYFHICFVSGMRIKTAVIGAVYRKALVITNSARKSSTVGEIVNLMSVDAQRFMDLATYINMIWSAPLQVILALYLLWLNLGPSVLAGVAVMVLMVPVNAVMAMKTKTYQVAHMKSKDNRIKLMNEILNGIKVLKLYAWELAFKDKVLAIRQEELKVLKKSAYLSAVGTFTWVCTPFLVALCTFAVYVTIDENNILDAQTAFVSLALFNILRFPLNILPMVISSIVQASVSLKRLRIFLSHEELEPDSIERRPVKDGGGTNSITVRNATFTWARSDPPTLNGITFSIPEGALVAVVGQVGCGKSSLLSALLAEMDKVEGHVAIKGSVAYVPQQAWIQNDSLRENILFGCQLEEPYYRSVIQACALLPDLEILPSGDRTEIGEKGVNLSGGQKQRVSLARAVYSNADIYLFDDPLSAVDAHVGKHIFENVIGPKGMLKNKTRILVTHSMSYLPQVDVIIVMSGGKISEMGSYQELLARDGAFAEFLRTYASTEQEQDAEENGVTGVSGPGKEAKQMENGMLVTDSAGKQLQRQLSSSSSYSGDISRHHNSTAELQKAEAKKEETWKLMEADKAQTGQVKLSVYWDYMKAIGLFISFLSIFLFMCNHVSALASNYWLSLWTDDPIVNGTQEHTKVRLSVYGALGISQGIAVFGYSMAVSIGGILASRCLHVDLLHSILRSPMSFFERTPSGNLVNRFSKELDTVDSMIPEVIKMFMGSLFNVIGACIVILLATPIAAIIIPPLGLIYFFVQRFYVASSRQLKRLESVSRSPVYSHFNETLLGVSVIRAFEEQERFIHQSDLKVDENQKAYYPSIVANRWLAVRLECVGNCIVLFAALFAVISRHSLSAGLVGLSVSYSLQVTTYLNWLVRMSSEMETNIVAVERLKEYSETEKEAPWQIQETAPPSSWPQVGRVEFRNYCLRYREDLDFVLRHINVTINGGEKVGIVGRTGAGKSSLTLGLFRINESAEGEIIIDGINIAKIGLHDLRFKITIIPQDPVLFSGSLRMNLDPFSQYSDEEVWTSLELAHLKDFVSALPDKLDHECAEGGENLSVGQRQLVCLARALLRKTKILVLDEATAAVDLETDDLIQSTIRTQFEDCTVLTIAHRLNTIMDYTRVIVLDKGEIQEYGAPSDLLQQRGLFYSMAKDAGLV

[3] = tested on: parental NCI-H460 (ABCG2-) and NCI-H460/MX20 (ABCG2+) cells; assay: Cytotoxicity of botryllamides alone, 7 d; type: cell-based, human; details: 100 µM botryllamide, result in words
[4] = Light-induced isomerization on exposure to sunlight; type: physicochemical; details: result in words
[5] = tested on: NCI-H460/MX20 (ABCG2-overexpressing) cells
ABCG2 [6] = target: T1, ABCG2; details: 20 µM compound, MCF-7 FLV1000 membranes
NCI-H460 parental cells = assay: Mitoxantrone cytotoxicity in parental cells; type: cell-based, human; details: 10 µM mitoxantrone, vs vehicle (data not shown)

activity in the screening assay (PhA) (ABCG2 [1]): inactive
activity in the BODIPY-prazosin flow cytometry assay (ABCG2 [2]): inactive
Molecule: [C-]#[N+]c1c(O)cccc1/C=C(/O)C(=O)N/C=C/c1ccc(O)cc1 [Botryllamide H, botryllamide H]

fold change in rhodamine fluorescence (P-gp-mediated transport) (P-gp): 17.6 fold
fold increase in cellular calcein fluorescence (MRP1-mediated transport) (MRP1): 4.5 fold
Molecule: CO/C(=C\c1ccc(O)cc1)C(=O)N/C=C/c1cc(Br)c(OC)c(Br)c1 [Botryllamide A, botryllamide A]

Molecule: CO/C(=C\c1ccc(O)cc1)C(=O)N/C=C/c1ccc(O)cc1 [Botryllamide F, botryllamide F]
cytotoxicity [3]: significant cytotoxicity

IC50 (ABCG2 [1]): 41.4 ± 6.1 µM
Molecule: botryllamide I
stability to sunlight [4]: irreversibly converted to botryllamide E (5) by exposure to sunlight

Molecule: CO/C(=C\c1ccc(O)cc1)C(=O)N/C=C/c1ccc(OC)c(Br)c1 [Botryllamide D, botryllamide D]
IC50 (ABCG2 [1]): 16.4 ± 2.3 µM
effect on P-gp (P-gp): inactive
cytotoxicity [3]: significant cytotoxicity

fold change in rhodamine fluorescence (P-gp-mediated transport) (P-gp): 29.7 fold
Molecule: C/C=C/C[C@@H](C)C(=O)[C@H]1C(=O)N[C@@H](C(C)C)C(=O)N(C)CC(=O)N(C)[C@@H](CC(C)C)C(=O)N[C@@H](C(C)C)C(=O)N(C)[C@@H](CC(C)C)C(=O)N[C@@H](C)C(=O)N[C@H](C)C(=O)N(C)[C@@H](CC(C)C)C(=O)N(C)[C@@H](CC(C)C)C(=O)N(C)[C@@H](C(C)C)C(=O)N1C [valspodar, reference compound]

Molecule: COc1ccc2c3c([nH]c2c1)[C@H](C=C(C)C)N1C(=O)[C@@H]2CCCN2C(=O)[C@@H]1C3 [FTC, fumitremorgin C, reference compound]
cells surviving in the presence of mitoxantrone ([5]; 10 µM compound + 10 µM mitoxantrone, 3 days, vs vehicle (DMSO) control): 57%
[125I]IAAP binding (incorporation into ABCG2) (ABCG2 [6]): 14 % of control
fold increase in intracellular BODIPY-prazosin fluorescence (ABCG2 [2]; ABCG2-transfected HEK293, vs absence of inhibitor): 3.4 fold

Molecule: CO/C(=C\c1ccc(O)cc1)C(=O)N/C=C/c1cc(Br)c(O)c(Br)c1 [Botryllamide G, botryllamide G]
max activity (% FTC) (ABCG2 [1]; human): 123.7 ± 1.7 ^d % FTC
effect on P-gp (P-gp): minimal effects; also recorded: inactive
effect on MRP1 (MRP1): minimal effects

IC50 (ABCG2 [1]): 11.2 ± 0.6 µM
Molecule: botryllamide B
cytotoxicity [3]: significant cytotoxicity

effect on P-gp (P-gp): minimal effects; also recorded: inactive
effect on MRP1 (MRP1): minimal effects
Molecule: CO/C(=C\c1ccc(O)cc1)C(=O)N/C=C/c1ccc(OC)cc1 [Botryllamide E, botryllamide E]

Molecule: O=C1c2c(O)ccc(O)c2C(=O)c2c(NCCNCCO)ccc(NCCNCCO)c21 [mitoxantrone, reference compound]
cells surviving with mitoxantrone alone (NCI-H460 parental cells): approximately 50%
cells alive with mitoxantrone alone ([5]; 10 µM mitoxantrone, 3 days, NCI-H460 MX20, vs vehicle (DMSO)): approximately 88%

Molecule: CO/C(=C\c1ccc(O)cc1)C(=O)N/C=C/c1ccc(OC)c(Br)c1 [Botryllamide C, botryllamide C]
activity in the screening assay (PhA) (ABCG2 [1]; result in words): inactive
activity in the mitoxantrone resistance reversal assay ([5]; 10 µM compound + 10 µM mitoxantrone, result in words): not particularly active
fold change in rhodamine fluorescence (P-gp-mediated transport) (P-gp): 46.4 fold
fold increase in cellular calcein fluorescence (MRP1-mediated transport) (MRP1): 3.7 fold
activity in the BODIPY-prazosin flow cytometry assay (ABCG2 [2]): active
